{
  "source": "patent US20130190268A1",
  "about": "“BIOTINYLATED POLYSACCHARIDES HAVING AN ANTITHROMBOTIC ACTIVITY AND IMPROVED METABOLIC STABILITY” (SANOFI, priority 2010, published 2013)",
  "key": {"avidin": {"target": "avidin (Gallus gallus, UniProt P02701)", "sequence (P02701 25-152, species assumed)": "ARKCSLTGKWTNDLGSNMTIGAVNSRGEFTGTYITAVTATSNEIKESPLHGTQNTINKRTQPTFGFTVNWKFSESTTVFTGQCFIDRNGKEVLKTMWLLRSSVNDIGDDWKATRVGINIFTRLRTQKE", "experiment": "Neutralization with avidin: avidin-coated beads, centrifugation, anti-factor Xa activity assayed in supernatant", "assay_type": "binding", "details": "after centrifugation", "protocol": "The resulting mixture is centrifuged and the anti-factor Xa activity is assayed in the supernatant."}, "biotinidase": {"target": "T1, biotinidase (Homo sapiens, UniProt P43251)", "T1 construct": "Ten individual batches of human plasma originating from 5 men and 5 women; from tissue; host or cells: pooled human plasma (5 men, 5 women), sodium citrate", "T1 sequence (P43251 22-523)": "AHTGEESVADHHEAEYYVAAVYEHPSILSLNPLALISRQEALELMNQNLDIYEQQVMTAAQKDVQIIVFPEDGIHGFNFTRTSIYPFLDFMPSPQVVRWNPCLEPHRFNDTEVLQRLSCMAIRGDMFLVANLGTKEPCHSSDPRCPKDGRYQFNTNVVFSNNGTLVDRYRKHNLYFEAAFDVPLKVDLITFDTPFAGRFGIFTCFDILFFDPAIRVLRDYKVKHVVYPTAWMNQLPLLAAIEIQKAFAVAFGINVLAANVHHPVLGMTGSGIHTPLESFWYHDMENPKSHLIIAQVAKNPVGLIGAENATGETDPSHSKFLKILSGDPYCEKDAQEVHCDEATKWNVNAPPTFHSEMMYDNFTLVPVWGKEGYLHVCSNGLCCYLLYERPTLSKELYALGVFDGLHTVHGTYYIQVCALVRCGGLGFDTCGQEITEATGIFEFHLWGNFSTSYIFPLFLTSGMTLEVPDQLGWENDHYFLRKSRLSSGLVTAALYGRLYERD", "experiment": "Metabolic stability in human plasma medium at pH 6.0 with respect to biotinidase activity", "assay_type": "in vitro ADME", "details": "pooled human plasma, pH 6.0, 1 μM, 37° C., LC/MS-MS", "protocol": "The metabolic stability of the compounds according to the invention with respect to biotinidase activity was studied on human plasma having been sampled on sodium citrate as anticoagulant. Ten individual batches of human plasma originating from 5 men and 5 women, constituting the evaluation matrix, were used and pooled in order to evaluate the metabolic stability of the compounds. The human plasma was incubated under the following conditions: • incubation medium (freshly prepared): 740 μl of 54 mM of sodium phosphate buffer, pH 6.0, containing 1.08 mM of disodium EDTA and 4.3 mM of cysteamine hydrochloride, • human plasma: 40 μl • concentrations of the compounds to be studied: 1 μM • incubation time: 24 hours • incubation temperature: 37° C.\nThe reaction is initiated by adding the compound to be studied, after a 10-minute period of preincubation of the plasma and of the incubation medium. At the end of the incubation period (24 hours), the reaction is stopped.\nThe compounds according to the invention are quantified according to a specific LC/MS-MS method.\nThe metabolization of each compound studied is measured by monitoring the disappearance of the unchanged product, the concentrations being determined for each incubation sample at time 0 hours and at time 24 hours, and the percentage metabolization being calculated according to the following formula: […]\nThe terms [compound at T 24H] and [compound at T 0H] correspond to the concentration of the compound to be studied in the reactive medium after 24 hours and before the beginning of the reaction, respectively."}, "[1]": {"target": "coagulation factor Xa, in the presence of antithrombin (Homo sapiens, UniProt P01008)", "sequence (P01008 33-464)": "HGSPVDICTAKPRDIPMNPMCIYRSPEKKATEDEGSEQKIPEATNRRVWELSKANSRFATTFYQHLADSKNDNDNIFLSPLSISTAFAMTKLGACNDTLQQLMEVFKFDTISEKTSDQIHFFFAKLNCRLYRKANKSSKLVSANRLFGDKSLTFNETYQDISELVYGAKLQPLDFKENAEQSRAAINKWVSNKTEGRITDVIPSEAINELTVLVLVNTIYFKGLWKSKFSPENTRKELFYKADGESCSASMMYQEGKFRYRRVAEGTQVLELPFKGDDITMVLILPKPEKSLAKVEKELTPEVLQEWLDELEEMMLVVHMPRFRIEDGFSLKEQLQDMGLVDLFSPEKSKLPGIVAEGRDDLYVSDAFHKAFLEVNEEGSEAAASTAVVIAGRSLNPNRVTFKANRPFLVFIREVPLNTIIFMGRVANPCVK", "experiment": "Antithrombin-dependent anti-factor Xa activity (in vitro inhibition of coagulation factor Xa)", "assay_type": "biochemical", "details": "read-out: IC50 (dose enabling 50% inhibition), anti-Xa activity (converted)", "description": "The activity of the compounds according to the invention was studied in an in vitro model of inhibition of coagulation factor Xa, in the presence of antithrombin (antithrombin-dependent anti-factor Xa activity), as described by J.-M. Herbert et al., Blood, 1998, 91, 4197-4205."}},
  "note": "Counter-ions that a name gives are not always drawn.",
  "data": [
    {"smiles": "COC1OC(COS(=O)(=O)O)C(OC2OC(C(=O)O)C(OC3OC(COS(=O)(=O)O)C(OC4OC(C(=O)O)C(OC5OC(COS(=O)(=O)O)C(OC)C(OC)C5NC(=O)CCCCCOCCCCCC5SCC6NC(=O)NC65)C(OC)C4OC)C(OS(=O)(=O)O)C3OS(=O)(=O)O)C(OC)C2OC)C(OS(=O)(=O)O)C1OS(=O)(=O)O", "note": "[Compound 1, Methyl (2-deoxy-3,4-di-O-methyl-2-{[6-({5-[(3aS,4S,6aR)-2-oxohexahydro-1H-thieno[3,4-d]imidazol-4-yl]pentyl}oxy)hexanoyl]amino}-6-O-sulfonato-α-D-glucopyranosyl)-(1→4)-(2,3-di-O-methyl-β-D-glucopyranosyluronate)-(1→4)-(2,3,6-tri-O-sulfonato-α-D-glucopyranosyl)-(1→4)-(2,3-di-O-methyl-α-L-idopyranosyluronate)-(1→4)-2,3,6-tri-O-sulfonato-α-D-glucopyranoside, sodium salt]", "values": [
      {"measurement": "anti-factor Xa activity in the supernatant", "setting": "avidin; 0.00005 μg product/μg avidin", "value": "1.3 ± 0.9", "unit": "%"},
      {"measurement": "anti-factor Xa activity in the supernatant", "setting": "avidin; 0.0001 μg product/μg avidin", "value": "5.6 ± 1.0", "unit": "%"},
      {"measurement": "anti-factor Xa activity in the supernatant", "setting": "avidin; 0.001 μg product/μg avidin", "value": "6.0 ± 0.2", "unit": "%"},
      {"measurement": "anti-factor Xa activity in the supernatant", "setting": "avidin; 0.01 μg product/μg avidin", "value": "6.8 ± 2.0", "unit": "%"},
      {"measurement": "metabolization percentage (compound metabolized after 24 h)", "setting": "biotinidase", "value": 1.7, "unit": "%"},
      {"measurement": "IC50", "setting": "[1]", "value": 10, "unit": "nM"}
    ]},
    {"smiles": "COC1OC(COS(=O)(=O)O)C(OC2OC(C(=O)O)C(OC3OC(COS(=O)(=O)O)C(OC4OC(C(=O)O)C(OC5OC(COS(=O)(=O)O)C(OC)C(OC)C5NC(=O)CCCCCN(C)CCCCCC5SCC6NC(=O)NC65)C(OC)C4OC)C(OS(=O)(=O)O)C3OS(=O)(=O)O)C(OC)C2OC)C(OS(=O)(=O)O)C1OS(=O)(=O)O", "note": "[Compound 2, Methyl (2-deoxy-3,4-di-O-methyl-2-{[6-(methyl{5-[(3aS,4S,6aR)-2-oxohexahydro-1H-thieno[3,4-d]imidazol-4-yl]pentyl}amino)hexanoyl]amino}-6-O-sulfonato-α-D-glucopyranosyl)-(1→4)-(2,3-di-O-methyl-β-D-glucopyranosyluronate)-(1→4)-(2,3,6-tri-O-sulfonato-α-D-glucopyranosyl)-(1→4)-(2,3-di-O-methyl-α-L-idopyranosyluronate)-(1→4)-2,3,6-tri-O-sulfonato-α-D-glucopyranoside, sodium salt]", "values": [
      {"measurement": "anti-factor Xa activity in the supernatant", "setting": "avidin; 0.00005 μg product/μg avidin", "value": "4.9 ± 1.4", "unit": "%"},
      {"measurement": "anti-factor Xa activity in the supernatant", "setting": "avidin; 0.0001 μg product/μg avidin", "value": "3.0 ± 0.7", "unit": "%"},
      {"measurement": "anti-factor Xa activity in the supernatant", "setting": "avidin; 0.001 μg product/μg avidin", "value": "5.2 ± 0.5", "unit": "%"},
      {"measurement": "anti-factor Xa activity in the supernatant", "setting": "avidin; 0.01 μg product/μg avidin", "value": "4.1 ± 0.2", "unit": "%"},
      {"measurement": "metabolization percentage (compound metabolized after 24 h)", "setting": "biotinidase", "value": "−3.3", "unit": "%"},
      {"measurement": "IC50", "setting": "[1]", "value": 9.93, "unit": "nM"}
    ]},
    {"smiles": "COC1OC(COS(=O)(=O)O)C(OC2OC(C(=O)O)C(OC3OC(COS(=O)(=O)O)C(OC4OC(C(=O)O)C(OC5OC(COS(=O)(=O)O)C(OC)C(OC)C5NC(=O)CCCCCN(C)C(=O)CCCCC5SCC6NC(=O)NC65)C(OC)C4OC)C(OS(=O)(=O)O)C3OS(=O)(=O)O)C(OC)C2OC)C(OS(=O)(=O)O)C1OS(=O)(=O)O", "note": "[Compound 3, Methyl (2-deoxy-3,4-di-O-methyl-2-{[6-(methyl{5-[(3aS,4S,6aR)-2-oxohexahydro-1H-thieno[3,4-d]imidazol-4-yl]pentanoyl}amino)hexanoyl]amino}-6-O-sulfonato-α-D-glucopyranosyl)-(1→4)-(2,3-di-O-methyl-β-D-glucopyranosyluronate)-(1→4)-(2,3,6-tri-O-sulfonato-α-D-glucopyranosyl)-(1→4)-(2,3-di-O-methyl-α-L-idopyranosyluronate)-(1→4)-2,3,6-tri-O-sulfonato-α-D-glucopyranoside, sodium salt]", "values": [
      {"measurement": "anti-factor Xa activity in the supernatant", "setting": "avidin; 0.00005 μg product/μg avidin", "value": "0.7 ± 2.4", "unit": "%"},
      {"measurement": "anti-factor Xa activity in the supernatant", "setting": "avidin; 0.0001 μg product/μg avidin", "value": "1.2 ± 0.6", "unit": "%"},
      {"measurement": "anti-factor Xa activity in the supernatant", "setting": "avidin; 0.001 μg product/μg avidin", "value": "1.8 ± 0.2", "unit": "%"},
      {"measurement": "anti-factor Xa activity in the supernatant", "setting": "avidin; 0.01 μg product/μg avidin", "value": "0.9%^(1)"},
      {"measurement": "metabolization percentage (compound metabolized after 24 h)", "setting": "biotinidase", "value": 0.8, "unit": "%"},
      {"measurement": "IC50", "setting": "[1]", "value": 9.53, "unit": "nM"}
    ]},
    {"smiles": "COC1OC(COS(=O)(=O)O)C(OC2OC(C(=O)O)C(OC3OC(COS(=O)(=O)O)C(OC4OC(C(=O)O)C(OC5OC(COS(=O)(=O)O)C(OC)C(OC)C5NC(=O)CCCCNC(=O)NCCCCC5SCC6NC(=O)NC65)C(OC)C4OC)C(OS(=O)(=O)O)C3OS(=O)(=O)O)C(OC)C2OC)C(OS(=O)(=O)O)C1OS(=O)(=O)O", "note": "[Compound 4, Methyl (2-deoxy-3,4-di-O-methyl-2-({5-[({4-[(3aS,4S,6aR)-2-oxohexahydro-1H-thieno[3,4-d]imidazol-4-yl]butyl}carbamoyl)amino]pentanoyl}amino)-6-O-sulfonato-α-D-glucopyranosyl)-(1→4)-(2,3-di-O-methyl-β-D-glucopyranosyluronate)-(1→4)-(2,3,6-tri-O-sulfonato-α-D-glucopyranosyl)-(1→4)-(2,3-di-O-methyl-α-L-idopyranosyluronate)-(1→4)-2,3,6-tri-O-sulfonato-α-D-glucopyranoside, sodium salt]", "values": [
      {"measurement": "anti-factor Xa activity in the supernatant", "setting": "avidin; 0.00005 μg product/μg avidin", "value": "3.6 ± 1.2", "unit": "%"},
      {"measurement": "anti-factor Xa activity in the supernatant", "setting": "avidin; 0.0001 μg product/μg avidin", "value": "2.5 ± 2.3", "unit": "%"},
      {"measurement": "anti-factor Xa activity in the supernatant", "setting": "avidin; 0.001 μg product/μg avidin", "value": "4.5 ± 0.8", "unit": "%"},
      {"measurement": "anti-factor Xa activity in the supernatant", "setting": "avidin; 0.01 μg product/μg avidin", "value": "2.4 ± 0.0", "unit": "%"},
      {"measurement": "metabolization percentage (compound metabolized after 24 h)", "setting": "biotinidase", "value": 5.3, "unit": "%"},
      {"measurement": "IC50", "setting": "[1]", "value": 9.22, "unit": "nM"}
    ]},
    {"smiles": "COC1OC(COS(=O)(=O)O)C(OC2OC(C(=O)O)C(OC3OC(COS(=O)(=O)O)C(OC4OC(C(=O)O)C(OC5OC(COS(=O)(=O)O)C(OC)C(OC)C5NC(=O)CCCCCNC(=O)CCCCC5SCC6NC(=O)NC65)C(OC)C4OC)C(OS(=O)(=O)O)C3OS(=O)(=O)O)C(OC)C2OC)C(OS(=O)(=O)O)C1OS(=O)(=O)O", "note": "(stereo not drawn) [Idrabiotaparinux, idrabiotaparinux, reference compound]", "values": [
      {"measurement": "anti-factor Xa activity in the supernatant", "setting": "avidin; 0.00005 μg product/μg avidin", "value": "1.2 ± 0.0", "unit": "%"},
      {"measurement": "anti-factor Xa activity in the supernatant", "setting": "avidin; 0.0001 μg product/μg avidin", "value": "2.5 ± 1.1", "unit": "%"},
      {"measurement": "anti-factor Xa activity in the supernatant", "setting": "avidin; 0.001 μg product/μg avidin", "value": "2.6 ± 0.3", "unit": "%"},
      {"measurement": "anti-factor Xa activity in the supernatant", "setting": "avidin; 0.01 μg product/μg avidin", "value": "5.2 ± 3.4", "unit": "%"},
      {"measurement": "metabolization percentage (compound metabolized after 24 h)", "setting": "biotinidase", "value": 15.9, "unit": "%"},
      {"measurement": "IC50", "setting": "[1]", "value": 9.49, "unit": "nM"}
    ]}
  ]
}
